# Reference: ChEMBL document CHEMBL1649099, “Identification of potent and selective glucosylceramide synthase inhibitors from a library of N-alkylated iminosugars” (ACS Med Chem Lett, 2011)
# Assays:
# [1] = biological target: T1, Lysosomal acid glucosylceramidase (Homo sapiens, UniProt P04062); experiment: Inhibition of recombinant GBA1 preincubated with compound for 30 mins using 4-methylumbelliferyl-B-glucoside substrate by fluorimetric assay
# T1 sequence (P04062 whole entry): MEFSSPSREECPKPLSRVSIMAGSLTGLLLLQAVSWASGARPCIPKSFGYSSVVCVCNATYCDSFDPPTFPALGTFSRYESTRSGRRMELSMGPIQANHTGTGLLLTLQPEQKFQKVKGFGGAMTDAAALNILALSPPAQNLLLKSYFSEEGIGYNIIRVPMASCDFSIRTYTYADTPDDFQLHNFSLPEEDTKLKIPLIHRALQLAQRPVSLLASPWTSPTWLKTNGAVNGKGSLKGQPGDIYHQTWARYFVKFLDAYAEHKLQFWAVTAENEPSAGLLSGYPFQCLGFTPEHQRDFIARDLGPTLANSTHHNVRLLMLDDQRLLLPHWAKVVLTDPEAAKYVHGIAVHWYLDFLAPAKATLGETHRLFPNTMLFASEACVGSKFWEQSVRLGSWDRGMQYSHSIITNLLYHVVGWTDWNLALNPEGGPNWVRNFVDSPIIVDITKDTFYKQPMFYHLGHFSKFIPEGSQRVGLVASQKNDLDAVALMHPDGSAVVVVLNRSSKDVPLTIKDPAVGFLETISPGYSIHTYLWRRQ
# Sucrase-isomaltase = Sucrase-isomaltase (Mus musculus, UniProt B5THE3); experiment: Inhibition of sucrase in mouse intestinal […] by glucose release assay
# Sucrase-isomaltase, sequence (B5THE3 whole entry): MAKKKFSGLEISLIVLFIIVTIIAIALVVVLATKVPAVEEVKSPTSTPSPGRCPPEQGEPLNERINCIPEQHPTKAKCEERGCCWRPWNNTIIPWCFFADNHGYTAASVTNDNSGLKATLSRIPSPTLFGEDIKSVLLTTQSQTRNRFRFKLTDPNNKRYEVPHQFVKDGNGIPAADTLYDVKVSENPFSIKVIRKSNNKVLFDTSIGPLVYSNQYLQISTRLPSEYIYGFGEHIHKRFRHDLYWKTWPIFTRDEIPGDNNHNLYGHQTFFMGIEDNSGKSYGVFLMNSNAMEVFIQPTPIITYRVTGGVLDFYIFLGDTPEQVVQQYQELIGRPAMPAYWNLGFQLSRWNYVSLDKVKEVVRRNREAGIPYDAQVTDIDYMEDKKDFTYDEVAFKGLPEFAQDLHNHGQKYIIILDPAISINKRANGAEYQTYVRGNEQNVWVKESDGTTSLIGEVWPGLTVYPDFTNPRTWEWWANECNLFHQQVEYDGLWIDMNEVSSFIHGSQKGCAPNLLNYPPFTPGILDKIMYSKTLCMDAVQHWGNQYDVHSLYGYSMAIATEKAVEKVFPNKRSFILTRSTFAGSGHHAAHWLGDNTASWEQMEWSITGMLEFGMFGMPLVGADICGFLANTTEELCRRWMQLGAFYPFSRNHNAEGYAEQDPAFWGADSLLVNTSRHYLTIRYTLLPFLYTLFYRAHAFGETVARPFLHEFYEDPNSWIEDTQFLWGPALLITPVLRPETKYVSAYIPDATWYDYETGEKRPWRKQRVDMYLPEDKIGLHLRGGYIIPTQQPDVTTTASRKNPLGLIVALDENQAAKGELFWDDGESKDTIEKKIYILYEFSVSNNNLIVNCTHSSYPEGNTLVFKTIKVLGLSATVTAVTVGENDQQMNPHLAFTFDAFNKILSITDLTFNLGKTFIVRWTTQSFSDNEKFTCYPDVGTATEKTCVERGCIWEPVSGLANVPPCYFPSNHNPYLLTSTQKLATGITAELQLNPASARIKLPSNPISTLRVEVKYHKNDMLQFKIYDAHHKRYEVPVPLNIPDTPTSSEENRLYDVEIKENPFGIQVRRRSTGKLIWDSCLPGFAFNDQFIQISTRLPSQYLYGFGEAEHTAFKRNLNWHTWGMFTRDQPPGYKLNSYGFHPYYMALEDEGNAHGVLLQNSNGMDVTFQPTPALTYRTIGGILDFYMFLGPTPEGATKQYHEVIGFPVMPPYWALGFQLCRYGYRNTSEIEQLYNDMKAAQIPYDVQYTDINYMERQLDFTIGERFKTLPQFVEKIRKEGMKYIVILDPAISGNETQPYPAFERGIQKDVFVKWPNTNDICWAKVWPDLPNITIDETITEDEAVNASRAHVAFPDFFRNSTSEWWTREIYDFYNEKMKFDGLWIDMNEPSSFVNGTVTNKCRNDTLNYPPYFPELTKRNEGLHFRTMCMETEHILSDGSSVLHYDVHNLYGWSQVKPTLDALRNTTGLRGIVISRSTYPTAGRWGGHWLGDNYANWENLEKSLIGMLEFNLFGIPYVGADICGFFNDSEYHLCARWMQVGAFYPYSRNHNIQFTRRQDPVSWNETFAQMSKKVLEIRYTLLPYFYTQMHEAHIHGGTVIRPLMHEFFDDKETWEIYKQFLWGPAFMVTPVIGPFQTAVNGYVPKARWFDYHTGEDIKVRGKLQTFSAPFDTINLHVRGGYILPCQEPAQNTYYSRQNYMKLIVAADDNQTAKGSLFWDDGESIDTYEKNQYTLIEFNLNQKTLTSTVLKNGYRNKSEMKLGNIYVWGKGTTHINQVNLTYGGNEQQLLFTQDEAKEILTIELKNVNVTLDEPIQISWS
# Beta-glucosidase = biological target: T2, Beta-glucosidase (Homo sapiens, UniProt Q9HCG7); experiment: Inhibition of recombinant GBA2 preincubated with compound for 30 mins using 4-methylumbelliferyl-B-glucoside substrate by fluorimetric assay
# T2 sequence (Q9HCG7 whole entry): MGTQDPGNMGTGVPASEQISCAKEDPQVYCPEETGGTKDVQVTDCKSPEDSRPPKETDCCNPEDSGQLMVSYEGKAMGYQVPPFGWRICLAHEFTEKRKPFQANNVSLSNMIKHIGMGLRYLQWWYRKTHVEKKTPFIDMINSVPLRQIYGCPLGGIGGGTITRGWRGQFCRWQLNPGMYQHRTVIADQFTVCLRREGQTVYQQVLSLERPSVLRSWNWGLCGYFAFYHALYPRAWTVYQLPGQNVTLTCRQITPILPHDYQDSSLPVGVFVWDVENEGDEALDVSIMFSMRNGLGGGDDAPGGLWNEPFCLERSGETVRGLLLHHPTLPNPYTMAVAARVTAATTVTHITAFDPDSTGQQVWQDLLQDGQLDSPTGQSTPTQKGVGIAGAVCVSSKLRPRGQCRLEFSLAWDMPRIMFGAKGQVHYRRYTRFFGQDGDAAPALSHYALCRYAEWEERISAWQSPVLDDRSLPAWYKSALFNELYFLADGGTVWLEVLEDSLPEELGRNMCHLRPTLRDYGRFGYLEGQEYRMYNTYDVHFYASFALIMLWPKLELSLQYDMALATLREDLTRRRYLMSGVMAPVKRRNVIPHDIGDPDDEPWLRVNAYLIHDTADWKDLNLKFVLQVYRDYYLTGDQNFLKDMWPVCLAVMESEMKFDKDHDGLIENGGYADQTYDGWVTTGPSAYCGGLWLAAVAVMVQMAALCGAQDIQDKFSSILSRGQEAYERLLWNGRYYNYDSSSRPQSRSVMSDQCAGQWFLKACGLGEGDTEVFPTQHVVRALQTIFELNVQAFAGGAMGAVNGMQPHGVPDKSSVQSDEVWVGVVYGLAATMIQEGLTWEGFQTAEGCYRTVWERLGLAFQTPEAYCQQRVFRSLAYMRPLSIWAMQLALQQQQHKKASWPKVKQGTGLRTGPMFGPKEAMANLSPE
# [2] = biological target: T3, Ceramide glucosyltransferase (Mus musculus, UniProt O88693); experiment: Inhibition of glucosylceramide synthase in mouse RAW cells preincubated with compound for 15 mins by in-situ enzyme inhibition assay; format: cell-based
# T3 sequence (O88693 whole entry): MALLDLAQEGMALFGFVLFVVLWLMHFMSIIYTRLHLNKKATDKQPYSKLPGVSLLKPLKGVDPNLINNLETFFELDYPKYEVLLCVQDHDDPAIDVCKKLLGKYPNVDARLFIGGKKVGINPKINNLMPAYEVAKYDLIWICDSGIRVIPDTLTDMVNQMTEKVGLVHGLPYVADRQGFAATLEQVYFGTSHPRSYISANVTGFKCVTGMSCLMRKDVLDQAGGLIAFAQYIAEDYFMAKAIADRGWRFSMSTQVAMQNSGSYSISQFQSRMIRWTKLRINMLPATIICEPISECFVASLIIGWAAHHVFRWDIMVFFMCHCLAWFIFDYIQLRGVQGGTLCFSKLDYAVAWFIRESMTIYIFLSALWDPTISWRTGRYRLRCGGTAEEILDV
IC50 [1] [µM],IC50 (Sucrase-isomaltase) [µM],IC50 (Beta-glucosidase) [µM],IC50 [2] [µM],Structure (SMILES)
500,2,0.4,> 20,CCCCCN1C[C@H](O)[C@@H](O)[C@H](O)[C@H]1CO
80,1,0.11,> 20,CCCCCCN1C[C@H](O)[C@@H](O)[C@H](O)[C@H]1CO
18.5,,0.045,40,CCCCCCCN1C[C@H](O)[C@@H](O)[C@H](O)[C@H]1CO
4,0.75,0.02,4,CCCCCCCCN1C[C@H](O)[C@@H](O)[C@H](O)[C@H]1CO
> 1000,> 1000,0.25,15,CCCCCN1C[C@H](O)[C@@H](O)[C@H](O)[C@@H]1CO
> 1000,600,0.14,40,CCCCCCN1C[C@H](O)[C@@H](O)[C@H](O)[C@@H]1CO
700,,0.04,4,CCCCCCCN1C[C@H](O)[C@@H](O)[C@H](O)[C@@H]1CO
25,60,0.02,4,CCCCCCCCN1C[C@H](O)[C@@H](O)[C@H](O)[C@@H]1CO
,> 1000,,,CCCCCCCCCN1C[C@H](O)[C@@H](O)[C@H](O)[C@@H]1CO
30,2,0.06,4,CCCCOCCCCCN1C[C@H](O)[C@@H](O)[C@H](O)[C@H]1CO
705,,0.04,2,CCCCCOCCCCCN1C[C@H](O)[C@@H](O)[C@H](O)[C@H]1CO
,,0.008,1,CCCCCCOCCCCCN1C[C@H](O)[C@@H](O)[C@H](O)[C@H]1CO
1.75,1,0.015,0.3,CCCCCCCOCCCCCN1C[C@H](O)[C@@H](O)[C@H](O)[C@H]1CO
0.5,1,0.01,0.2,CCCCCCCCOCCCCCN1C[C@H](O)[C@@H](O)[C@H](O)[C@H]1CO
,,,0.1,CCCCCCCCCOCCCCCN1C[C@H](O)[C@@H](O)[C@H](O)[C@H]1CO
> 1000,> 1000,0.09,2,CCCCOCCCCCN1C[C@H](O)[C@@H](O)[C@H](O)[C@@H]1CO
100,,0.015,0.15,CCCCCOCCCCCN1C[C@H](O)[C@@H](O)[C@H](O)[C@@H]1CO
,,0.025,0.1,CCCCCCOCCCCCN1C[C@H](O)[C@@H](O)[C@H](O)[C@@H]1CO
40,> 1000,0.015,0.05,CCCCCCCOCCCCCN1C[C@H](O)[C@@H](O)[C@H](O)[C@@H]1CO
15,> 1000,0.015,0.05,CCCCCCCCOCCCCCN1C[C@H](O)[C@@H](O)[C@H](O)[C@@H]1CO
,,,< 0.05,CCCCCCCCCOCCCCCN1C[C@H](O)[C@@H](O)[C@H](O)[C@@H]1CO
,0.4,,,CCCCCCCCCN1C[C@H](O)[C@@H](O)[C@H](O)[C@H]1CO
